Test results as given in publication PMC7933930, “Development of a small molecule that corrects misfolding and increases secretion of Z α1‐antitrypsin” (EMBO Molecular Medicine, 2021).

Key:
[1] = test system: CHO inducible cells expressing wild‐type M α1‐antitrypsin; experiment: Tunicamycin sensitivity, cell viability (Cell Counting Kit‐8), cells expressing M α1‐antitrypsin; format: cell-based; details: 10 μM GSK716, cells expressing M α1‐antitrypsin, tunicamycin 36 h
Experimental: (§1) Figure 2 GSK716 inhibits polymerisation of Z α1‐antitrypsin in cell models of disease • A GSK716 was added to CHO‐TET‐ON‐Z‐A1AT cells (Ordóñez et al, 2013) with simultaneous induction of Z α1‐antitrypsin expression using doxycycline, and polymer load was quantified with the 2C1 monoclonal antibody that is specific to pathological polymers of α1‐antitrypsin (Miranda et al, 2010). […] Data were normalised to vehicle and a control compound from the GSK716 series at saturating concentration. […] It induced an approximately threefold increase in secreted levels of Z α1‐antitrypsin compared with vehicle control. This was apparent even after polymers had been allowed to form. Scale bar: 100 µm. Data presented as mean ± SD, n = 8 (secretion) and n = 6 (polymer inhibition). • E CHO tetracycline‐inducible cells expressing Z α1‐antitrypsin were induced with 0.5 μg/ml doxycycline for 48 h and treated with 10 μM GSK716. […] For every time point, NP‐40‐soluble and NP‐40‐insoluble fractions were separated and immunoprecipitated with the 2C1 mAb and resolved by 4–12% w/v SDS–PAGE and α1‐antitrypsin detected by immunoblotting. […] Cell viability was measured by Cell Counting Kit‐8. […] Samples were resolved by 4–12% w/v acrylamide SDS–PAGE and detected by autoradiography. • H The graphs show the effect of GSK716 on intracellular and extracellular Z α1‐antitrypsin (mean ± SEM, n = 2). […]

[2] = test system: Z α1‐antitrypsin in CHO‐K1 Tet‐On cells; experiment: Pulse‐chase of Z α1‐antitrypsin in CHO‐K1 Tet‐On cells; format: cell-based; details: 10 μM GSK716
Experimental: as §1

[3] = Oral pharmacokinetics in rat; format: in vivo; details: Han Wistar, whole blood, ≤ 3 mg/kg, read-out: F (oral bioavailability)
Experimental: (§2) […] Blood samples were taken into EDTA, diluted and mixed with acetonitrile containing internal standard (alprazolam) and centrifuged to precipitate proteins. Aliquots of the resultant supernatant were analysed by LC‐MS/MS, and concentrations of GSK716 in blood were determined. Non‐compartmental pharmacokinetic analysis (NCA) was carried out using Phoenix WinNonLin 6.3 (Certara L.P.). Free drug was measured in Z α1‐antitrypsin transgenic mice by dialysing tissue samples in rapid equilibrium dialysis cassettes.

[4] = Oral pharmacokinetics in dog; format: in vivo; details: beagle, whole blood, ≤ 3 mg/kg, read-out: F (oral bioavailability)
Experimental: as §2

Cannabinoid CB1 = Cannabinoid CB1 (Homo sapiens, UniProt P21554); experiment: Off‐target panel: Cannabinoid CB1 (DRX); format: cell-based
Experimental: (§3) GSK716 selectivity and PK properties were profiled in order to investigate the suitability of GSK716 for progression into in vivo studies and the potential for taking it forward as a clinical candidate for testing in humans. Since GSK716 results in loss of inhibitory activity of α1‐antitrypsin, the effect of the compound was assessed on other closely related serpins. […] Furthermore, there were no off‐target effects in a panel of assays considered predictive of known safety liabilities that precluded further development of GSK716 (Table EV1).

[5] = target: L-type Ca channel (CaV1.2) (Homo sapiens, UniProt Q13936); experiment: in vitro; format: cell-based
Experimental: as §3

[6] = target: Norepinephrine transporter (Homo sapiens, UniProt P23975); experiment: Off‐target panel: Norepinephrine transporter; format: cell-based
Experimental: as §3

OPRK1 = OPRK1 (Homo sapiens, UniProt P41145); experiment: Off‐target panel: OPRK1 (DRX); format: cell-based
Experimental: as §3

Phospholipidosis = experiment: Off‐target panel: Phospholipidosis; format: cell-based; details: Induction (pMEC)
Experimental: as §3

Sequence of Cannabinoid CB1 (P21554 whole entry): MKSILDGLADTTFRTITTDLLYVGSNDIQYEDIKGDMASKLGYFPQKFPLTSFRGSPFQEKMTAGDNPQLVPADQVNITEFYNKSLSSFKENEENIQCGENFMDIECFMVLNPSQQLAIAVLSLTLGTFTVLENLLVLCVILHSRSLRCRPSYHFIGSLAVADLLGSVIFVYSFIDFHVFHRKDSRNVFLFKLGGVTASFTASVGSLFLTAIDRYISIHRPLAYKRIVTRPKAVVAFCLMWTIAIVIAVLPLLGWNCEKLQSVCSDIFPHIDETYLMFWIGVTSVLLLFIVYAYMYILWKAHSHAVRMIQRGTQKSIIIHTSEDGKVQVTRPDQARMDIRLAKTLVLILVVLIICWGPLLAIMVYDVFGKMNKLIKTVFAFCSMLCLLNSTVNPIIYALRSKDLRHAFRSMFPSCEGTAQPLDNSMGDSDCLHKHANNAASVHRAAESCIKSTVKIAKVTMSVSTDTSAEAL
Sequence of Norepinephrine transporter (P23975 whole entry, species assumed): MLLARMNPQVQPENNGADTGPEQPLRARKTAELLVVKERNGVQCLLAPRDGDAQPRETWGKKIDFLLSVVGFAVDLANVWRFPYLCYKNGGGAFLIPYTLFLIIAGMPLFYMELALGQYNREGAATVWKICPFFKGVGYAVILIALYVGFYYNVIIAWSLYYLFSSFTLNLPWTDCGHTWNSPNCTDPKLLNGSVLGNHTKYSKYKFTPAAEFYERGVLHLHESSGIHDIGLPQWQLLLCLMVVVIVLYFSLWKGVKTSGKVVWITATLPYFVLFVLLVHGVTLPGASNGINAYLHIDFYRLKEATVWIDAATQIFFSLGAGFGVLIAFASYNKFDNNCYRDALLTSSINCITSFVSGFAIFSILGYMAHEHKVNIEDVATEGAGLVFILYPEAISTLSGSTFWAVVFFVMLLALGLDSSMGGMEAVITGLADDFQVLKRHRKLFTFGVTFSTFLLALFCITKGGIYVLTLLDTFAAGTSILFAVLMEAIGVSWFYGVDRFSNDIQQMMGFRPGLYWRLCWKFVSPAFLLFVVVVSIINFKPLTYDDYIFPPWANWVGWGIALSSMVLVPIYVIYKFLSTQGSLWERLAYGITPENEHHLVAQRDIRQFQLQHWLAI
Sequence of OPRK1 (P41145 whole entry, species assumed): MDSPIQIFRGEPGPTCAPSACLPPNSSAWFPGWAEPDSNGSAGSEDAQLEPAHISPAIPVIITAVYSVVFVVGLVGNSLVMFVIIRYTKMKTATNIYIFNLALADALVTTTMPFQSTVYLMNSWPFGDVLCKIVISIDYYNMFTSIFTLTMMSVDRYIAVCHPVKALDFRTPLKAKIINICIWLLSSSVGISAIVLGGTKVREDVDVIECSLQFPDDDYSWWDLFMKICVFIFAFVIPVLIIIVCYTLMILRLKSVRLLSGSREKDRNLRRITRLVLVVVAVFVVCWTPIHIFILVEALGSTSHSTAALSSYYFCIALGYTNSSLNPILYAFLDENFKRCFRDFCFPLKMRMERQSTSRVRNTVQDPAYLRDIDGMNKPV

## CCC[C@@H](NC(=O)c1cccc2c1CC(=O)N2)[C@@H](O)c1cccc(F)c1C [GSK716]
[1]
  survival with tunicamycin (cell viability): no effect
[2]
  intracellular polymers, clearance and secretion in pulse‐chase: abolished intracellular polymers
[3]
  bioavailability: 48%
[4]
  bioavailability: 71%
Cannabinoid CB1
  EC50: > 100 µM
[5]
  IC50: < 2.14 µM
[6]
  IC50: > 100 µM
OPRK1
  EC50: 20 µM
Phospholipidosis
  Mean (PXC50): pMEC: pMEC= 5.8
